Two compounds from ChEMBL document CHEMBL4414630, “Cyclobutastellettolides A and B, C19 Norterpenoids from a Stelletta sp. Marine Sponge” (J Nat Prod, 2019) can be followed below.

Each structure is given as a SMILES string.

Test [1] deals with Peritoneal macrophage. The test can be described thus: Induction of ROS generation in BALB/c mouse peritoneal macrophages at 10 uM incubated for 1 hr by H2DCF-DA staining based fluorescence analysis relative to control. In kind it is functional.
The next test deals with N2a. The test can be described thus: Cytotoxicity against mouse Neuro2a cells assessed as inhibition of cell viability incubated for 24 hrs by MTT assay. In kind it is cell-based. In general terms: Tetrazolium dyes change colour on reduction, which living cells bring about.
In another test the test system is HT-29. Nature of the test: Cytotoxicity against human HT-29 cells assessed as inhibition of cell viability incubated for 24 hrs by MTS assay. The format is cell-based. The settings on record: HT-29, 24 h.
Another test has as its system DLD-1. The test can be described thus: Cytotoxicity against human DLD1 cells assessed as inhibition of cell viability incubated for 24 hrs by MTS assay. In kind it is cell-based. To be noted: DLD-1, 24 h.
The subject of test [2] is Peritoneal macrophage. The test can be described thus: Induction of ROS generation in BALB/c mouse peritoneal macrophages at 1 uM incubated for 1 hr by H2DCF-DA staining based fluorescence analysis relative to control. The format is functional.

By IC50 is commonly meant the point on the concentration scale where inhibition reaches its midpoint. Consider `CC(=O)O[C@H]1CC[C@@]2(C)[C@@H](CC[C@]3(C)C(=O)[C@@]4(C)OC(=O)C[C@@]234)C1(C)C`, for which the Activity in the test on Peritoneal macrophage [1] came out at 90%; in the test on Peritoneal macrophage [2], 73%. The IC50 in the test on N2a, in the test on HT-29 and with DLD-1 was over 40 µM each time.
On to `CC1(C)C(=O)CC[C@@]2(C)[C@H]1CC[C@]1(C)C(=O)[C@@]3(C)OC(=O)C[C@@]213`, for which the Activity with Peritoneal macrophage [1] is given as 93%; with Peritoneal macrophage [2] it was 55%. Also, the concentration for half-maximal inhibition (IC50) in the test on N2a, in the test on HT-29 and in the test with DLD-1 was over 40 µM in each case.
